Assay results taken from ChEMBL document CHEMBL5247613, “Design, synthesis and biological evaluation of a new class of Hsp90 inhibitors vibsanin C derivatives” (Eur J Med Chem, 2022).
Active and inactive are the calls of the source. No cut-off for these calls is given here.

Columns and labels:
[1] = test system: HL-60; assay: Induction of apoptosis in human HL-60 cells assessed as viable cells at 1 uM by AnnexinV-FITC/PI staining based flow cytometry (reference value: 89.7%); type: functional; settings: read-out: Activity
[2] = Toxicity in Kunming mouse assessed as effect on heart at 5 to 500 mg/kg, ip administered as single dose by macroscopic autopsy analysis; type: organism-based; settings: in vivo, dose 5-500 mg/kg
[3] = Toxicity in Kunming mouse assessed as effect on spleen at 5 to 500 mg/kg, ip administered as single dose by macroscopic autopsy analysis; type: organism-based; settings: in vivo, dose 5-500 mg/kg
[4] = test system: HL-60; assay: Induction of apoptosis in human HL-60 cells assessed as viable cells at 10 uM by AnnexinV-FITC/PI staining based flow cytometry (reference value: 89.7%); type: functional; settings: read-out: Activity
[5] = test system: H22; assay: Antitumor activity against mouse H22 cells xenografted in Kunming mouse assessed as reduction in tumor volume at 100 mg/kg, ip administered for 14 days; type: functional; settings: H22, 336 h, time 14 day
[6] = test system: HL-60; assay: Induction of apoptosis in human HL-60 cells assessed as viable cells at 20 uM by AnnexinV-FITC/PI staining based flow cytometry (reference value: 89.7%); type: functional; settings: read-out: Activity
[7] = target: T1, Heat shock protein HSP90 (Homo sapiens) (UniProt P07900+P08238); assay: Inhibition of HSP90 in human HL-60 cells assessed as decrease in CDK4 protein expression incubated for 24 hrs by western blot analysis; type: cell-based; settings: dose 1-10 µM
[8] = test system: HL-60; assay: Induction of apoptosis in human HL-60 cells assessed as late apoptotic cells at 20 uM by AnnexinV-FITC/PI staining based flow cytometry (reference value: 8.57%); type: functional
[9] = test system: HL-60; assay: Induction of apoptosis in human HL-60 cells assessed as necrotic cells at 20 uM by AnnexinV-FITC/PI staining based flow cytometry (reference value: 0.4%); type: functional
[10] = Inhibition of HSP90 in rabbit reticulocyte lysates incubated for 3 hrs by denatured luciferase refolding assay; type: subcellular, Oryctolagus cuniculus
[11] = test system: A549; assay: Antiproliferative activity against human A549 cells assessed as reduction in cell viability incubated for 48 hrs by MTT assay; type: functional, cell-based; settings: A549, 48 h
[12] = Solubility of the compound in aqueous NMR buffer; type: physicochemical
[13] = test system: HL-60; assay: Induction of apoptosis in human HL-60 cells assessed as increase in PARP cleavage incubated for 24 hrs by western blot analysis; type: functional, cell-based; settings: dose 1-10 µM
[14] = Toxicity in Kunming mouse assessed as effect on liver at 5 to 500 mg/kg, ip administered as single dose by macroscopic autopsy analysis; type: organism-based; settings: in vivo, dose 5-500 mg/kg
[15] = test system: HL-60; assay: Induction of apoptosis in human HL-60 cells assessed as early apoptotic cells at 20 uM by AnnexinV-FITC/PI staining based flow cytometry (reference value: 1.33%); type: functional
[16] = test system: HL-60; assay: Induction of apoptosis in human HL-60 cells assessed as late apoptotic cells at 10 uM by AnnexinV-FITC/PI staining based flow cytometry (reference value: 8.57%); type: functional
[17] = test system: SW480; assay: Antiproliferative activity against human SW480 cells assessed as reduction in cell viability incubated for 48 hrs by MTT assay; type: functional, cell-based; settings: SW480, 48 h
[18] = target: T1, Heat shock protein HSP90 (Homo sapiens); assay: Inhibition of HSP90 in human HL-60 cells assessed as increase in HSP27 protein expression incubated for 24 hrs by western blot analysis; type: cell-based; settings: dose 1-10 µM
[19] = test system: HL-60; assay: Induction of apoptosis in human HL-60 cells assessed as early apoptotic cells at 1 uM by AnnexinV-FITC/PI staining based flow cytometry (reference value: 1.33%); type: functional
[20] = Toxicity in Kunming mouse assessed as effect on sign of illness at 500 mg/kg, ip administered as single dose; type: organism-based; settings: in vivo
[21] = test system: Reticulocyte; assay: Inhibition of HSP90 in rabbit reticulocyte lysates at 10 uM incubated for 3 hrs by denatured luciferase refolding assay; type: subcellular; settings: Oryctolagus cuniculus
[22] = test system: H22; assay: Antitumor activity against mouse H22 cells xenografted in Kunming mouse assessed as reduction in tumor weight at 100 mg/kg, ip administered for 14 days; type: functional; settings: H22, 336 h, time 14 day
[23] = test system: HL-60; assay: Induction of apoptosis in human HL-60 cells assessed as late apoptotic cells at 5 uM by AnnexinV-FITC/PI staining based flow cytometry (reference value: 8.57%); type: functional
[24] = test system: HL-60; assay: Induction of apoptosis in human HL-60 cells assessed as viable cells at 5 uM by AnnexinV-FITC/PI staining based flow cytometry (reference value: 89.7%); type: functional; settings: read-out: Activity
[25] = Toxicity in ip dosed Kunming mouse administered as single dose; type: organism-based; settings: in vivo
[26] = Toxicity in Kunming mouse assessed as normal animal behaviour at 500 mg/kg, ip administered as single dose; type: organism-based; settings: in vivo
[27] = Toxicity in Kunming mouse assessed as effect on feeding habits at 500 mg/kg, ip administered as single dose; type: organism-based; settings: in vivo
[28] = test system: HL-60; assay: Induction of apoptosis in human HL-60 cells assessed as early apoptotic cells at 5 uM by AnnexinV-FITC/PI staining based flow cytometry (reference value: 1.33%); type: functional
[29] = test system: MCF7; assay: Antiproliferative activity against human MCF7 cells assessed as reduction in cell viability incubated for 48 hrs by MTT assay; type: functional, cell-based; settings: MCF7, 48 h
[30] = Toxicity in Kunming mouse xenografted with mouse H22 cells assessed as body weight loss at 100 mg/kg, ip administered for 14 days; type: organism-based; settings: in vivo, 336 h, time 14 day
[31] = Toxicity in Kunming mouse assessed as pain at 500 mg/kg, ip administered as single dose; type: organism-based; settings: in vivo
[32] = Toxicity in Kunming mouse assessed as effect on kidney at 5 to 500 mg/kg, ip administered as single dose by macroscopic autopsy analysis; type: organism-based; settings: in vivo, dose 5-500 mg/kg
[33] = test system: HL-60; assay: Induction of apoptosis in human HL-60 cells assessed as increase in caspase-3 cleavage incubated for 24 hrs by western blot analysis; type: functional, cell-based; settings: dose 1-10 µM
[34] = test system: HL-60; assay: Induction of apoptosis in human HL-60 cells assessed as decrease in Bcl2 protein expression at 1 to 10 uM incubated for 24 hrs by western blot analysis; type: functional, cell-based; settings: dose 1-10 µM
[35] = Toxicity in Kunming mouse assessed as effect on lung at 5 to 500 mg/kg, ip administered as single dose by macroscopic autopsy analysis; type: organism-based; settings: in vivo, dose 5-500 mg/kg
[36] = test system: HL-60; assay: Induction of apoptosis in human HL-60 cells assessed as increase in Bax protein expression at 1 to 10 uM incubated for 24 hrs by western blot analysis; type: functional, cell-based; settings: dose 1-10 µM
[37] = test system: HL-60; assay: Induction of apoptosis in human HL-60 cells assessed as necrotic cells at 1 uM by AnnexinV-FITC/PI staining based flow cytometry (reference value: 0.4%); type: functional
[38] = test system: HL-60; assay: Antiproliferative activity against human HL-60 cells assessed as reduction in cell viability incubated for 48 hrs by MTT assay; type: functional, cell-based; settings: HL-60, 48 h
[39] = test system: HL-60; assay: Induction of apoptosis in human HL-60 cells assessed as late apoptotic cells at 1 uM by AnnexinV-FITC/PI staining based flow cytometry (reference value: 8.57%); type: functional
[40] = test system: HL-60; assay: Induction of apoptosis in human HL-60 cells assessed as necrotic cells at 10 uM by AnnexinV-FITC/PI staining based flow cytometry (reference value: 0.4%); type: functional
[41] = Toxicity in Kunming mouse assessed as injury at 500 mg/kg, ip administered as single dose; type: organism-based; settings: in vivo
[42] = test system: HL-60; assay: Induction of apoptosis in human HL-60 cells assessed as early apoptotic cells at 10 uM by AnnexinV-FITC/PI staining based flow cytometry (reference value: 1.33%); type: functional
[43] = test system: HL-60; assay: Induction of apoptosis in human HL-60 cells assessed as necrotic cells at 5 uM by AnnexinV-FITC/PI staining based flow cytometry (reference value: 0.4%); type: functional
[44] = Toxicity in Kunming mouse assessed as effect on physical appearance at 500 mg/kg, ip administered as single dose; type: organism-based; settings: in vivo
[45] = test system: SMMC-7721; assay: Antiproliferative activity against human SMMC-7721 cells assessed as reduction in cell viability incubated for 48 hrs by MTT assay; type: functional, cell-based; settings: SMMC-7721, 48 h

For `CC(C)=CCC[C@@]1(C)CC=C(CF)c2oc(C)cc2[C@@H]1/C=C/OC(=O)C=C(C)C`, the viability at 1 µM [1] was 87.1%, the Activity [2] was “Non-Toxic” and the Activity [3] was “Non-Toxic”. It also gave a viability at 10 µM [4] of 38.4%, an inhibition in vivo at 100 mg/kg [5] of 48.4% and a viability at 20 µM [6] of 19.5%. For the same compound, the inhibition [7] was “Dose-Dependent Effect”, the Activity [8] was 73.3% and the Activity [9] was 3.45%. For the same compound, the IC50 [10] was 390 nM, the IC50 [11] was > 40 µM and the solubility [12] was “Insoluble”. The Activity [13] was “Dose-Dependent Effect”, the Activity [14] was “Non-Toxic” and the Activity [15] was 3.78%. For the same compound, the Activity [16] was 50.4%, the IC50 [17] was 20 µM and the inhibition [18] was “Dose-Dependent Effect”. For the same compound, the Activity [19] was 1.57%, the Activity [20] was “Non-Toxic” and the inhibition [21] was 72.2%. For the same compound, the inhibition in vivo at 100 mg/kg [22] was 42.4%, the Activity [23] was 12.8% and the viability at 5 µM [24] was 83%. The LD50 [25] was > 500 mg/kg, the Activity [26] was “Non-Toxic” and the Activity [27] was “Non-Toxic”. For the same compound, the Activity [28] was 2.87%, the IC50 [29] was 17.7 µM and the Activity [30] was “Non-Toxic”. For the same compound, the Activity [31] was “Non-Toxic”, the Activity [32] was “Non-Toxic” and the Activity [33] was “Dose-Dependent Effect”. For the same compound, the Activity [34] was “Active”, the Activity [35] was “Non-Toxic” and the Activity [36] was “Active”. The Activity [37] was 0.27%, the IC50 [38] was 3.69 µM and the Activity [39] was 11%. For the same compound, the Activity [40] was 6.29%, the Activity [41] was “Non-Toxic” and the Activity [42] was 4.98%. The Activity [43] was 0.22%, the Activity [44] was “Non-Toxic” and the IC50 [45] was 11.9 µM.
